From ChEMBL document CHEMBL1938373, “Structure-based design, synthesis and biological evaluation of N-pyrazole, N'-thiazole urea inhibitors of MAP kinase p38α” (Eur J Med Chem, 2012) come the findings set out here.

Structures are written as SMILES. Calls of active or inactive are those of the source. The calls are words filed in the database; no cut-off is given here.

Series [1] can be described thus: Solubility of the compound. The format is physicochemical.
The target of series [2] is T1, Mitogen-activated protein kinase 14 (Homo sapiens, UniProt Q16539).
T1 sequence (Q16539 whole entry): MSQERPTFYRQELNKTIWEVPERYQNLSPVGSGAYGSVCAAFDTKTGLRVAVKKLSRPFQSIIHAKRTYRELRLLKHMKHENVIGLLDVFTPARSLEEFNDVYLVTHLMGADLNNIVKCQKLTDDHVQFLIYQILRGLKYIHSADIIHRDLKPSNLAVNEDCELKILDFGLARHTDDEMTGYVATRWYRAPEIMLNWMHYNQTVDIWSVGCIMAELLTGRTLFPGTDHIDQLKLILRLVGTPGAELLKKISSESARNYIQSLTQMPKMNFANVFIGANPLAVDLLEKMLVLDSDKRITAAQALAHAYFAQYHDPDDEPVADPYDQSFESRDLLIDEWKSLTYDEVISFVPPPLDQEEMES
The target of series [3] is T1, Mitogen-activated protein kinase 14. Description: Binding affinity to N-terminus His-tagged human p38alpha expressed in Escherichia coli BL21 DE3 at 1 nM to 10 uM after 5 hrs by fluorescence analysis.
Series [4] shares this target. Description: Inhibition of N-terminus His-tagged human p38alpha expressed in Escherichia coli BL21 DE3 using GST-tagged ATF2 as substrate after 90 mins by HTRF assay. In general terms: TR-FRET usually uses a lanthanide donor and a delayed reading to cut background.
The target is the same in series [5]. Description: Inhibition of p38alpha-mediated MK2 phosphorylation in anisomysin-stimulated human HeLa cells after 2 hrs by immunoblot analysis.
The target is the same in series [6]. Description: Inhibition of p38alpha-mediated MK2 phosphorylation in anisomysin-stimulated human HeLa cells at 0.5 to 50 uM after 2 hrs by immunoblot analysis. The class given is cell-based. (In general: In western blotting, separated proteins are transferred to a membrane and probed.)

On to `O=C(Nc1ccc(Cl)c(C(F)(F)F)c1)Nc1nc(CCOCc2ccccc2)cs1`, for which the solubility result in series [1] is recorded as “Insoluble”. For orientation: Kd means a measure of binding affinity in units of concentration. High values mean weaker binding, low ones tighter binding. In series [2], `O=C(O)Cc1ccc(-n2nc(C3CCCC3)cc2NC(=O)Nc2nc(CCOCc3ccccc3)cs2)cc1` yielded a Kd of 901 nM.

`CC(C)(C)c1cc(NC(=O)Nc2nc(CCOCc3ccccc3)cs2)n(-c2cccc(CC(=O)O)c2)n1` displayed a Kd in series [2] of 920 nM. Turning to `O=C(Nc1nc(CCOCc2ccccc2)cs1)c1cc(F)cc(N2CCOCC2)c1`, the outcome in series [3] was inactive. In turn, `Cc1ccc(-n2nc(C(C)(C)C)cc2NC(=O)Nc2nc(CCOCc3ccncc3)cs2)cc1` had a Kd in series [2] of 586 nM.

Consider `Cc1ccc(-n2nc(C(C)(C)C)cc2NC(=O)Nc2nc(CCOCc3ccccc3)cs2)cc1`, for which the Kd in series [2] worked out at 382 nM. The same measure, in the same setting: for `O=C(O)Cc1cccc(-n2nc(C3CCCC3)cc2NC(=O)Nc2nc(CCOCc3ccccc3)cs2)c1` the value was 580 nM; for `Cc1ccc(-n2nc(C(C)(C)C)cc2NC(=O)Nc2nccs2)cc1`, 990 nM. `NC(COCc1ccccc1)c1csc(NC(=O)Nc2ccc(Cl)c(F)c2)n1` (stereo not drawn) gave a Kd in series [2] of 13400 nM.

Turning to `CC(C)(C)c1cc(NC(=O)Nc2nc(CCOCc3ccccc3)cs2)n(-c2ccc(CC(=O)O)cc2)n1`, the Kd in series [2] worked out at 287 nM.

`Cc1ccc(-n2nc(C(C)(C)C)cc2NC(=O)Nc2nc(CCOCc3ccc(F)cc3)cs2)cc1` came in with a Kd in series [2] of 303 nM. As a reminder, the IC50 is the concentration at which inhibition is half-maximal. Take `CCOC(=O)Cc1ccc(-n2nc(C(C)(C)C)cc2NC(=O)Nc2nccs2)cc1`: the Kd in series [2] stood at 675 nM. Also, the IC50 came out at 639 nM in series [4] and 6000 nM in series [5]. Regarding `CC(C)(C)c1cc(NC(=O)Nc2nccs2)n(-c2ccc(CC(=O)O)cc2)n1`, binding in series [2] was characterised by a dissociation constant (Kd) of 196 nM. It took 135 nM to reach half-maximal inhibition in series [4] (IC50). Further, the inhibition entry in series [6] is “inactive”. As to `O=C(O)Cc1cccc(-n2nc(C3CC3)cc2NC(=O)Nc2nc(CCOCc3ccccc3)cs2)c1`, binding in series [2] was characterised by a dissociation constant (Kd) of 14700 nM.
